Results on 3 compounds are retold here after patent US8926082B2, “Optically polymerizable ink jet ink, ink cartridge, and printer” (Ricoh Company, Ltd., priority 2011, dated 2015).

The conditions of series [1]: "negative" or "none": SI value naturally less than 3; cited from earlier work.
A short description of series [2]: skin sensitization test by Local Lymph Node Assay (LLNA), Stimulation Index. It is filed as in vivo. The note with it: SI less than 3 = no problem. An excerpt:
However, inkjet ink in which such compounds are blended to provide a curing property sufficient for practical use has a relatively high viscosity in comparison with typical optical polymerizable inkjet ink. Therefore, for example, if a desirable high image density is to be obtained by increasing the blend ratio of a pigment, such inkjet ink requires an extra decrease in the viscosity to achieve stable ejection.
The Local Lymph Node Assay (LLNA) method is a skin sensitization test defined as OECD Test Guideline 429 and as described in documents such as an issue of September 2005, Vol. 25, No. 9, p 55, published by CMC Publishing Co., Ltd., when a compound has a Stimulation Index (SI) of less than 3, which is an indicator of the degree of […], the compound is determined to have no problem with regard to the skin sensitization.
The details of A1 to A14, B1 and B2, C1 and C2, and D1 in Tables 1 to 8 are as follows: The value in the parentheses at the end of A1 to A14 is an SI value. “negative” or “none” means evaluation of skin sensitization as “negative” or “none” in the MSDS sheet in which the SI value is naturally less than 3.

As to “Caprolactone-modified dipentaerythritol hexaacrylate [Example A7]”, the “evaluation of skin sensitization in the MSDS sheet” value in series [1] is “negative”. As for `C=CC(=O)NCCO` [Example A11, Hydroxyethyl acrylamide], in series [1], the “evaluation of skin sensitization in the MSDS sheet” value is listed as “None”. With `C=C(C)C(=O)OC1CCOC1=O` (stereo not drawn) [Example A4, γ-butylo lactone methacrylate], the “SI value (Stimulation Index)” value in series [2] came out at 2.1.
